# Measurements: patent US7977481B2, “Pyrimidinyl-thiophene kinase modulators” (SGX Pharmaceuticals, Inc., priority 2005, dated 2011)
# pIC50: −log10 of the molar value.
# Tests used:
# JAK2 JH1JH2 V617F kinase = target: T1, JAK2 JH1JH2 V617F kinase (Homo sapiens, UniProt O60674, V617F); test: JAK2 Luminescence-Based ATP Depletion Enzyme Assay (JAK2-V617F); assay type: biochemical; settings: 10 μM ATP
# T1 construct: JAK2 JH1JH2 V617F kinase; inferred from Ni-NTA capture and imidazole elution; made in house; host or cells: Sf9 insect cells
# T1 sequence (O60674 536-1132 V617F limits assumed): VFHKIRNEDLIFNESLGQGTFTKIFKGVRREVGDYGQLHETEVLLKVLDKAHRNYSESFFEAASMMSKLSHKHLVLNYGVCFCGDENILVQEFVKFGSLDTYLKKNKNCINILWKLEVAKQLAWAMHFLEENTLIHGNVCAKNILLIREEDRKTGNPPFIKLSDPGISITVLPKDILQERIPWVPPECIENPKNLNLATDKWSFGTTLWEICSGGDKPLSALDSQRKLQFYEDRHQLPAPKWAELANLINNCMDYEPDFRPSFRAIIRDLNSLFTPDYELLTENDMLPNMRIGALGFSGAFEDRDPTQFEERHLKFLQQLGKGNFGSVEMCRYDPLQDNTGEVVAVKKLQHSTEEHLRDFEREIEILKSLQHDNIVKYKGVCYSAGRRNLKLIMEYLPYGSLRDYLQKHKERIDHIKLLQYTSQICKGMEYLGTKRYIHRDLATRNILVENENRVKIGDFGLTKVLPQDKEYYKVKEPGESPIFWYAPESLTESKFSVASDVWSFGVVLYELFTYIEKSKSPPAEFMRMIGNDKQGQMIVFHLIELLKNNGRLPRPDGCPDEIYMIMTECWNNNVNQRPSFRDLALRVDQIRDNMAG
# Method: (§1) JAK2 Luminescence-Based ATP Depletion Enzyme Assay
# (§2) Materials: JAK3tide peptide substrate=GGEEEEYFELVKKKK (Biopeptide, San Diego, Calif.), ATP (Sigma Cat#A-3377, FW=551), HEPES buffer, pH 7.6, 10% Brij 35 (Calbiochem Cat#203728), MgCl2, Staurosporine (Streptomyces sp. Sigma Cat#85660-1MG), white Corning (Costar) 384-well flat bottom plate (VWR Cat#29444-088), JAK2 KD (kinase domain) or JAK2 JH1JH2 V617F kinase (see below), Kinase-Glo™ (Promega Cat#V6712).
# (§3) Stock Solutions: 5 mM JAK3tide peptide (9.86 mg/ml in 100 mM HEPES, pH 7.6), stored at −20° C.; 100 mM HEPES buffer, pH 7.6, 10% Brij 35; 10 mM ATP (5.51 mg/ml in 100 mM HEPES, pH 7.6) stored at −20° C. (diluted 50 μl into total of 10 ml 100 mM HEPES, pH 7.6, daily=50 μM ATP working stock); 100 mM MgCl2; 200 μM Staurosporine, 2× Kinase-Glo™ reagent (made fresh or stored at −20° C.).
# (§4) Standard Assay Conditions for 384-well format (20 μl kinase reaction, 40 μl detection reaction): 10 mM MgCl2; 0.1 mM JAK3tide peptide (or, 0.5 mM JAK3tide peptide for JAK2 JH1JH2 V617F assay); 1 μl test compound (in 100% DMSO); 0.4 μg/ml JAK2 KD kinase or 12 μg/ml JAK2 JH1JH2 V617F kinase; 10 μM ATP; 100 mM HEPES+0.01% Brij, pH 7.6. Positive controls contained 5% DMSO with no test compound. Negative controls contained 10 μM staurosporine. The kinase reactions were initiated at time t=0 by the addition of ATP. Kinase reactions were incubated at 21-23° C. for 30 min, after which 20 μl of Kinase-Glo™ reagent were added to each well to quench the kinase reaction and initiate the luminescence reaction. After a 20 min incubation at 21-23° C., the luminescence was detected in a plate-reading luminometer (Tecan Ultra Evolution).
# (§5) The pellet of Sf9 insect cells produced from a 6 L expression of Jak2 was resuspended in a buffer containing 50 mM Tris-HCl pH 8.5, 250 mM NaCl, 5% Glycerol, 0.2% β-octylglucoside, 5 mM β-mercaptoethanol (or with ligand added to the buffer eg. 5 mM ATP and 10 mM MgCl2; 0.05 mM compound of the invention) in a volume of approximately 40 mL per 1 L of original culture. One tablet of Roche Complete, EDTA-free protease inhibitor cocktail (Cat. #1873580) was added per 1 L of original culture. The suspension was then stirred for 1 hour at 4° C. Debris was removed by centrifugation for 30 minutes at 39,800 g at 4° C. The supernatant was decanted into a 500 mL beaker and 10 mL of 50% Qiagen Ni-NTA Agarose (Cat. #30250) pre-equilibrated in 50 mM Tris-HCl pH 8.5, 250 mM NaCl, 5% Glycerol, 0.2% β-octylglucoside, 5 mM β-mercaptoethanol was added and stirred for 30 minutes at 4° C. The sample was poured through a drip column at 4° C. and washed with 10 column volumes (CV) of 50 mM Tris-HCl pH 8.5, 250 mM NaCl, 5% Glycerol, 0.2% β-octylglucoside, 5 mM β-mercaptoethanol. The protein was eluted in 5 mL fractions using 5 CV of the same buffer containing 250-500 mM Imidazole. Fractions were pooled by SDS-PAGE analysis and the protein concentration determined by a Bradford assay. 5 mM TCEP was added to the pool and the protein sample was concentrated to ˜8 mL by centrifugation in an Amicon Ultra-15 10,000 Da MWCO centrifugal filter unit (Cat. #UFC901024). The concentrated protein was applied to a GE Healthcare HiLoad 16/60 Superdex 75 or 200 prep grade column (Cat. #17-1068-01, Cat. #17-1069-01) equilibrated in 20 mM Tris-HCl pH 8.5, 250 mM NaCl, and 1 mM DTT. Fractions were run on a SDS-PAGE gel and the cleanest fractions were pooled. The protein was concentrated to approximately 6.5-10 mg/mL. Samples in the final buffer (20 mM Tris-HCl pH 8.5, 250 mM NaCl, 1 mM DTT; [or with ligand added eg. 2 mM ATP/5 mM MgCl2 or 0.05 mM compound of the invention]) are delivered fresh to crystallization and stored at 4° C. or flash frozen in liquid nitrogen (as 120 μL aliquots) and stored at −80° C.
# JAK2 KD kinase = target: T2, JAK2 KD kinase (Homo sapiens, UniProt O60674); test: JAK2 Luminescence-Based ATP Depletion Enzyme Assay (JAK2-WT); assay type: biochemical; settings: 10 μM ATP
# T2 construct: JAK2 KD (kinase domain); inferred from Ni-NTA capture and imidazole elution; made in house; host or cells: Sf9 insect cells
# T2 sequence (O60674 849-1124 limits assumed): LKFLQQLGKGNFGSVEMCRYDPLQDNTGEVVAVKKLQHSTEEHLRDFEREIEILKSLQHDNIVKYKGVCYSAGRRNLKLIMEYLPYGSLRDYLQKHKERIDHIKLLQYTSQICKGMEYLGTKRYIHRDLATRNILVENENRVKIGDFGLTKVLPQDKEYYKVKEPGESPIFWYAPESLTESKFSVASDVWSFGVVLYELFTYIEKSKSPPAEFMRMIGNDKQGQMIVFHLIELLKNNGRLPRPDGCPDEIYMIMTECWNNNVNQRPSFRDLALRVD
# Method: as §1, §2, §3, §4, §5
pIC50 (JAK2 JH1JH2 V617F kinase),pIC50 (JAK2 KD kinase),SMILES
> 6.30,> 7.00,CCN(CCC#N)S(=O)(=O)c1ccc(-c2ccnc(Nc3cccc(C)c3)n2)s1
–,> 7.00,CC(O)c1cccc(Nc2nccc(-c3ccc(-c4cccnc4)s3)n2)c1 (stereo not drawn)
–,> 7.00,C[C@@H](NC(=O)c1ccc(-c2ccnc(Nc3cccc(CN4CCN(CCO)CC4)c3)n2)s1)c1ccccc1
–,> 7.00,CC(O)c1cccc(Nc2nccc(-c3ccc(S(=O)(=O)Cc4ccccc4)s3)n2)c1 (stereo not drawn)
> 6.30,> 7.00,CCN(CCC#N)S(=O)(=O)c1ccc(-c2ccnc(Nc3cccc(C(C)O)c3)n2)s1 (stereo not drawn)
> 6.30,> 7.00,CN(C)C1CCN(c2cccc(Nc3nccc(-c4ccc(C(=O)NCc5ccco5)s4)n3)c2)C1 (stereo not drawn)
> 6.30,> 7.00,C[C@@H](NC(=O)c1ccc(-c2ccnc(Nc3cccc(CN4CCC(O)CC4)c3)n2)s1)c1ccccc1
–,> 7.00,CN(Cc1ccccc1)C(=O)c1ccc(-c2ccnc(Nc3ccc(CCO)cc3)n2)s1
> 6.30,> 7.00,O=C(NCc1ccccc1)c1ccc(-c2ccnc(Nc3ccc(CCO)cc3)n2)s1
–,> 7.00,CC(O)c1cccc(Nc2nccc(-c3ccc(-c4ccncc4)s3)n2)c1 (stereo not drawn)
–,> 7.00,CCC(=O)Nc1ccc(-c2ccnc(Nc3cccc(C)c3)n2)s1
–,> 7.00,OC1CCN(Cc2cccc(Nc3nccc(-c4ccc(CNc5ccccc5Cl)s4)n3)c2)CC1
> 6.30,> 7.00,CCN(CCC#N)C(=O)c1ccc(-c2ccnc(Nc3cccc(C(C)O)c3)n2)s1 (stereo not drawn)
> 6.30,> 7.00,CC(O)c1cccc(Nc2nccc(-c3ccc(-c4cccc(CC#N)c4)s3)n2)c1 (stereo not drawn)
–,> 7.00,CNC(=O)c1ccc(-c2ccc(-c3ccnc(Nc4cccc(C(C)O)c4)n3)s2)cc1 (stereo not drawn)
> 6.30,> 7.00,CC(O)c1cccc(Nc2nccc(-c3ccc(S(=O)(=O)N(C)C)s3)n2)c1 (stereo not drawn)
